Data on 29 molecules can be found in PubChem BioAssay (NCI).

SMILES strings stand for the structures.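 The compound was tested at five concentrations on cells cultured in 96-well plates, with a 48-hour exposure period. Here, GI50 denotes the concentration required for 50% inhibition of growth. TGI: concentration producing complete growth inhibition.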

Test in all cases: inhibition of tumour cell growth, NCI panel, 48 h
The subject of test [1] is DU-145 prostate.
For test [2], the system named is MALME-3M melanoma.
Test [3] concerns NCI-H226 lung.
Test [4] concerns SK-MEL-5 melanoma.
For test [5], the system named is SNB-75 CNS.
For test [6], the system named is UACC-257 melanoma.
The test system of test [7] is A549 NSCLC.
Test [8] has as its system HCT-116 colon.
In test [9] the test system is OVCAR-5 ovarian.
The test system of test [10] is UO-31 renal.

In the case of `CN1C2CCC1C(CO)C(=O)C2` (configuration not stated), the TGI is > 100 µM in test [1]; 66.5 µM in [2]; > 100 µM in [3]; > 100 µM in test [4]; > 100 µM in [5]; > 100 µM in test [6].
Take `COc1ccc(C(=O)/C=C/c2ccc(OCCCCCCCCCCOc3ccc(/C=C/C(=O)c4ccc(OC)c(OC)c4)cc3)cc2)c(OC)c1`: the TGI in [7], in test [1], in test [8], in test [3], in [9] and in test [4] was > 100 µM each time. In addition, the TGI in test [5], in test [6] and in test [10] was > 100 µM throughout.
On to `O=C(O[C@@H](/C=C/c1ccccc1)P1(=O)N(Cc2ccccc2)[C@@H]2CCCC[C@H]2N1Cc1ccccc1)c1ccccc1`, for which the TGI in [7] was > 100 µM; in test [8], > 100 µM; in test [2], > 100 µM; in test [3], 9.58 µM; in test [9], > 100 µM; in test [4] it was 4.16 µM. In addition, the TGI in test [6] was > 100 µM; in [10], 27.4 µM.
For the molecule `CCc1ccc(OCc2ccccc2C(=O)Nc2ccc3nc(C)cc(N)c3c2)cc1`, the GI50 in [7] is 1.56 µM; in test [1] it was 1.68 µM; in test [2], 1.74 µM; in [9], 1.62 µM; in test [4], 1.54 µM; in [5] it was 1.28 µM. For the same molecule, the GI50 in test [6] was 1.83 µM; in [10], 1.44 µM. The TGI in test [7] came out at 3.27 µM; in test [1], 3.17 µM; in [2], 3.35 µM; in [9], 3.14 µM; in test [4] it was 2.91 µM; in [5] it was 2.59 µM. Also, the TGI in test [6] is 3.37 µM; in test [10], 2.84 µM.
For `Fc1ccc(OCc2ccc3nc(-c4ccccc4)c(Cl)nc3c2)cc1`, the TGI was > 100 µM in test [7]; > 100 µM in test [1]; > 100 µM in test [8]; 35.9 µM in test [2]; > 100 µM in test [9]; > 100 µM in test [4]. The TGI is 42.8 µM in test [5], > 100 µM in [6] and > 100 µM in test [10].
As for `COC(=O)c1ccc2cc(O)ccc2c1`, the TGI in test [7], in test [1], in test [8], in test [2], in [3] and in [9] was > 100 µM each time. Also, the TGI in test [4], in test [6] and in [10] was > 100 µM each time.
Turning to `CCC1(c2ccc(OC)c(OC)c2)CCN2C(=O)C(O)CC21` (configuration not stated), the TGI in [7], in test [1], in [8], in test [3], in test [9] and in [4] was > 100 µM each time. Also, the TGI in [5], in test [6] and in test [10] was > 100 µM each time.
`O=C(O)Cn1c[n+](NC(=O)Cc2ccccc2)cn1`: the TGI in test [7], in [1], in test [8], in [2], in [9] and in test [4] was > 10 µM in each case. In addition, the TGI in [5], in [6] and in test [10] was > 10 µM each time.
`CC12CCC(=O)[C@@]1(C)CCCC2=O` (some centres not stated): the TGI in test [7], in test [1], in [8], in test [2], in test [3] and in [9] was > 100 µM in each case. Besides, the TGI in test [6] and in test [10] was > 100 µM throughout.
With `COc1cccc(Nc2nc3c([nH]2)c(=O)n(C)c(=O)n3C)c1`, the TGI in test [7], in [1], in test [2], in test [4], in test [5] and in [6] was > 10 µM in each case.
As for `O=C(/C=C/CC(O)(c1ccccc1)c1ccccc1)Nc1ccccc1Cl`, the TGI in test [8], in test [2], in test [3], in test [9], in test [4] and in test [5] was > 100 µM in each case. The TGI in [6] and in [10] was > 100 µM in each case.
Turning to `C=C1C[C@@H]2CC[C@@]34CC5O[C@H]6C(O[C@H]7CC[C@H](CC(=O)O[C@@H]8[C@@H](C)[C@@H]9O[C@@H]%10C[C@]%11(C[C@@H]%12O[C@]%13(C[C@H](C)[C@@H]%14O[C@@H]%15CC(C(COC(C)=O)OC(C)=O)O[C@@H]%15C[C@@H]%14O%13)C[C@H](C)[C@@H]%12O%11)O[C@@H]%10C[C@@H]9O[C@H]8CC8O[C@@H](CC[C@@H]1O2)C[C@@H](C)C8(O)CO)O[C@@H]7[C@@H]6O3)[C@H]5O4` (some centres not stated), the TGI in [7], in [1], in test [8], in test [3], in [9] and in test [4] was > 1 µM each time. Moreover, the values for the TGI in [5], in [6] and in test [10] were > 1 µM, > 0.53 µM and > 1 µM, respectively.
As for `CCOC(=O)C(NC(=O)CC)(Nc1ccccc1F)C(F)(F)F` (configuration not stated), the TGI in [7], in [1], in [8], in test [9], in test [4] and in [5] was > 100 µM each time. In addition, the TGI in [6] and in [10] was > 100 µM throughout.
As for `CO[C@H](C)[C@](O)(C(=O)OCC1=CCN2CC[C@@H](O)[C@H]12)C(C)C`, the TGI in test [7], in test [1], in test [8], in test [3], in [9] and in [4] was > 100 µM in each case. The TGI in test [5], in test [6] and in test [10] was > 100 µM each time.
Turning to `CC(=O)OC1COC(N2c3ccccc3[C@@H]3CCc4c([nH]c5ccccc45)[C@@H]32)C(OC(C)=O)C1OC(C)=O` (mixture of isomers), the TGI in test [7], in test [1], in test [8], in test [2], in test [9] and in test [4] was > 100 µM in each case. Moreover, the TGI in test [5], in [6] and in test [10] was > 100 µM in each case.
Turning to `CCc1nc2c([nH]1)C(=O)c1ccccc1C2=O`, the TGI in [7] is > 100 µM; in test [8], 80.6 µM; in test [2], 49.5 µM; in test [3], > 100 µM; in test [9], > 100 µM; in test [5], > 100 µM. The TGI in [6] was 78 µM; in [10] it was > 100 µM.
Take `CC(C)NC(=O)OCc1c(COC(=O)NC(C)C)n(C)c2c1ccc1cc(Cl)c(Cl)cc12`: the TGI in [7] is 95.7 µM; in test [8], 24 µM; in test [2], 22.7 µM; in test [3], 17.3 µM; in [9] it was 29.4 µM; in test [4], 30.1 µM. Further, the TGI in test [5] came out at 28.4 µM; in test [6], 30.6 µM; in test [10], 32.8 µM.
Regarding `COc1ccc(CCn2ccc(=O)c(O)c2C)cc1OC`, the TGI in [7] was > 100 µM; in [1] it was 43 µM; in test [8], > 100 µM; in test [2], 91 µM; in test [9], > 100 µM; in test [4], 41.8 µM. Also, in test [6], the TGI was 31 µM.
In the case of `Cn1c(=O)c2[nH]c(Nc3cccc(Cl)c3)nc2n(C)c1=O`, the TGI in [7], in test [1], in test [2], in test [4], in test [5] and in [6] was > 10 µM each time.
With `O=c1ccn([C@@H]2C=C(CO)[C@@H](O)[C@H]2O)c(=O)[nH]1`, the TGI was > 625 µM in [7]; > 625 µM in test [8]; > 625 µM in test [2]; > 625 µM in test [3]; > 625 µM in test [4]; 431 µM in [5]. For the same molecule, the TGI in test [10] is > 625 µM.
For `CC1=NN(c2cccc(Cl)c2)C2(C1=Cc1ccc(N(C)C)cc1)C(Cl)C(=O)N2c1nc2ccccc2s1` (configuration not stated), the TGI in test [1], in test [8], in test [3], in test [9], in test [4] and in [6] was > 100 µM each time. Also, the TGI in test [10] was > 100 µM.
Take `O=C(O)CCSc1ncnc2nc[nH]c12`: the TGI in test [7], in test [1], in test [8], in test [2], in test [3] and in [9] was > 100 µM throughout. Besides, the TGI in [4], in [6] and in [10] was > 100 µM throughout.
Consider `Clc1sc(Cl)c2c1[C@H](Br)C[C@@H]2Cl`, for which the TGI was > 100 µM in test [7]; > 100 µM in test [1]; 65.9 µM in test [8]; 49.4 µM in test [2]; > 100 µM in [9]; > 100 µM in test [4]. The results for the TGI in [5], in test [6] and in [10] were > 100 µM, 78.2 µM and 43.8 µM, respectively.
Regarding `CCOP(=O)(CC1OC(CO)C(O)C1O)OCC` (configuration not stated), the TGI in test [7], in test [1], in test [8], in test [2], in test [9] and in test [4] was > 100 µM each time. Besides, the TGI in test [5], in test [6] and in test [10] was > 100 µM throughout.
Consider `O=C(O)C12C3C4(C(=O)O)C1C1(C(=O)O)C2C3(C(=O)O)C41` (configuration not stated), for which the TGI in test [7], in test [1], in [8], in [2], in test [9] and in test [4] was > 100 µM throughout. The TGI in [5], in [6] and in [10] was > 100 µM in each case.
Consider `CC(Br)CN(CC(C)Br)c1ccc2c(c1)Cc1ccccc1-2` (configuration not stated), for which the TGI in test [7] amounted to 24.4 µM; in test [1], 23 µM; in test [8], 23.8 µM; in test [2], 24.9 µM; in [9] it was 34.9 µM; in test [4] it was 25.2 µM. The TGI in [5] stood at 25.2 µM; in [6], 28.1 µM; in test [10], 24.9 µM.
For `O=C1c2cc3c(cc2-c2c1c1cc(F)c(F)cc1c(=O)n2C[C@H](O)CO)OCO3`, the GI50 in test [7] was 0.069 µM; in test [1], 0.0407 µM; in [2], 0.196 µM; in [9], 0.207 µM; in test [4] it was 0.0307 µM; in test [6], 0.143 µM. Further, in test [10], the GI50 is 0.0698 µM. The TGI is 1.12 µM in [7]; > 100 µM in test [1]; 0.916 µM in test [2]; 4.55 µM in test [9]; 0.116 µM in test [4]; 0.593 µM in test [6]. Besides, the TGI in test [10] came out at 0.337 µM.
As for `CSc1ncnc2c1cnn2Cc1cn(COCC(O)CO)nn1` (configuration not stated), the TGI in test [7], in test [1], in test [8], in test [3], in [9] and in test [4] was > 100 µM throughout. The TGI in test [6] and in [10] was > 100 µM in each case.
For `COc1cc2c3cc1Oc1cc(ccc1O)C[C@@H]1c4c(cc(OC)c(O)c4Oc4ccc(cc4)C[C@@H]3[N+](C)(C)CC2)CC[N+]1(C)C`, the TGI in [7] was > 100 µM; in test [1], > 100 µM; in test [8], > 100 µM; in [2], 74.4 µM; in [3] it was > 100 µM; in test [9], > 100 µM. Further, the TGI in [4], in test [6] and in [10] was > 100 µM throughout.
